Assay results as given in US20180059115A1, “METHODS FOR MONITORING POLYMORPHONUCLEAR MYELOID DERIVED SUPPRESSOR CELLS, AND COMPOSITIONS AND METHODS OF TREATMENT OF CANCER” (The Wistar Institute of Anatomy and Biology, priority 2016, published 2018).
“Also recorded” adds a separate entry of the source.

Assays:
[1] = test system: PMN isolated from healthy donors; test: In vitro PMN LOX-1 induction by ER stress inducers, LOX-1 by flow cytometry; assay type: cell-based, human; details: overnight with GM-CSF, THG 1 μM, DTT 1 mM
Experimental: (§1) PMNs from healthy donors were isolated on a Histopaque gradient. 5×10^5 cells/ml were cultured for 12 hrs with 10 ng/ml of GM-CSF in the presence of dithiothreitol (DTT) (0.5, 1, 2 mM; Sigma), tunicamycin (0.5, 1, and 2 μg/ml; Sigma-Aldrich), or thapsigargin (0.5, 1, and 2 μM; Sigma). In some instances, 20 μM of the XBP-1 inhibitor BIO9 was added 3 hours prior to culture. Cells were then stained for flow cytometry or used for functional assays as described above.
Flow cytometry data were acquired using a BD LSR II flow cytometer and analyzed using FlowJo software (Tree Star) Immunofluorescent microscopy: Following deparaffinization and rehydration, heat induced antigen retrieval was performed using Tris-EDTA buffer pH 9. Followed by blocking with 5% BSA, tissues were stained with Lox1 antibody (Abcam; Cat no ab126538) and CD15 antibody (BD biosciences; Cat no 555400) at 1:200 dilution in 5% BSA each for 1 hour at room temperature. The following secondary antibodies were used Alexa Fluor anti-rabbit A647 (1:200 dilution in 5% BSA, Life technologies) for Lox1 and anti-mouse A514 (1:400 dilution in 5% BSA, Life technologies) for CD15 staining. CD15 staining was pseudo colored red and Lox1 staining was pseudo colored green. Nucleus was stained using DAPI (1:5000 dilution in PBS, Life technologies). Images were obtained using Leica TCS SP5 Confocal microscope. […]

T lymphocytes [2] = test: Three-way allogeneic MLR suppression assay (thymidine incorporation); assay type: cell-based, human; details: 1 μM NAC, 1000 U/ml catalase, 20 μM Nor-NOHA, 1:2 PMN:T cell ratio
Source text: Whole blood was enriched for PMNs using MACSxpress® Neutrophil Isolation Kit (Miltenyi) following the protocol provided by the manufacturer. Cells were then labeled with anti-Lox1-PE mAb (Biolegend) and then separated using anti-PE beads and MACS column (Miltenyi). For the three-way allogenic MLR suppression assay, T lymphocytes from one healthy donor were purified using the Human CD3+ T Cell Enrichment Column Kit (R&D Systems) and used as responder cells. Dendritic cells were generated from adherent monocytes from another healthy donor in the presence of 25 ng/mL GM-CSF and 25 ng/mL IL-4 (Peprotech) for 6 days and used as stimulator cells. Responder and stimulator cells were then mixed at a 10:1 ratio followed by the addition of Lox1+ or Lox1− PMNs. T lymphocyte proliferation was assessed after 5 days of culture by thymidine incorporation.
In some experiments, 1 μM N-acetyl cysteine (NAC; Sigma) or 20 μM of Nω-hydroxy-norarginine (nor-NOHA; Cayman Chemical) was added to the culture media to block ROS or agrinase I activity, respectively. T lymphocyte proliferation was assessed after 5 days of culture by thymidine incorporation.

T lymphocytes [3] = test: CD3/CD28 induced T-cell proliferation suppression assay (3H-thymidine uptake); assay type: cell-based, human; details: healthy donor PMN treated overnight with 1 μM THG, washed
Experimental: Concurrently, T-lymphocytes were isolated from the PBMC of the same patient as LOX-1+ PMN using human CD3+ T Cell Enrichment Column Kit. PMNs were plated at different ratios with […] T lymphocytes in a 96-well plate coated with 10 μg/ml anti-CD3 (clone UCHT1; BD Biosciences) followed by the addition of 1 μg/ml of soluble anti-CD28 (clone CD28.2; BD Biosciences). T lymphocyte proliferation was assessed after 3 days of culture by thymidine incorporation.
as §1

[4] = test system: PMN isolated from healthy donors; test: LOX-1 expression in PMN treated with cytokines or tumor-cell conditioned medium; assay type: cell-based, human; details: healthy donor PMN, 24 hr culture, GM-CSF added; TCM 20% v/v
Experimental: FIGS. 11A and 11B show the mechanism regulating LOX-1 expression on PMN-MDSC, specifically the percentage of LOX-1+ PMN (FIG. 11A) and expression of LOX-1 (FIG. 11B) in PMN isolated from 4 healthy donors and treated with indicated cytokines. Range of concentrations based on reported data were tested and only one for each cytokine is shown. Conditioned medium from PCI30 tumor cells (TCM) was used at 20% v/v concentration. Mean and SD are shown.
What could induce LOX-1 up-regulation in PMN-MDSC? Based on the fact that in endothelial cells LOX-1 can be induced by pro-inflammatory cytokines^35, we tested the effect of several cytokines as well as tumor-cell conditioned medium (TCM) on LOX-1 expression in PMN isolated from healthy donors. None of the tested pro-inflammatory cytokines (IL-1β, TNFα, IL-6) or TCM induced upregulation of LOX-1 in PMN after 24 hr culture (GM-CSF was added to protect PMN viability) (FIGS. 11A and 11B).

hepatic L02 cells = details: cited from earlier work

Molecule | effect on LOX-expression in PMN / immune suppressive activity of LOX-1+ PMN-MDSC (T lymphocytes [2]) | upregulation of LOX-1 in PMN [4] | also measured
O[C@H](CS)[C@H](O)CS (racemic) [DTT, dithiothreitol] | – | – | LOX-1 expression in PMN [1]: dramatic up-regulation of LOX-1 expression
CC(=O)N[C@@H](CS)C(=O)O [NAC, N-acetylcysteine] | substantially decreased LOX-expression | – | –
N=C(NO)NCC[C@H](N)C(=O)O [Nor-NOHA, Nω-hydroxy-norarginine] | substantially decreased LOX-expression | – | –
C/C=C(/C)C(=O)O[C@H]1C(C)=C2[C@H]([C@@H]1OC(=O)CCCCCCC)[C@@](C)(OC(C)=O)C[C@H](OC(=O)CCC)[C@@]1(O)[C@H]2OC(=O)[C@@]1(C)O [THG, thapsigargin] | – | – | LOX-1 expression in PMN [1]: dramatic up-regulation of LOX-1 expression; immune suppressive activity of treated PMN (T-cell proliferation) (T lymphocytes [3]): caused acquisition of potent immune suppressive activity; also recorded: converted PMN to PMN-MDSC
IL-1β: pro-inflammatory cytokine | – | None | –
IL-6: pro-inflammatory cytokine | – | None | –
TNFα | – | None | –
catalase | substantially decreased LOX-expression | – | –
tunicamycin | – | – | LOX-1 expression under ER stress (hepatic L02 cells): caused down-regulation of LOX-1
